Structures are written as SMILES.

This assay can be described thus: PRMT5 Biochemical Assay: The assays were all performed in a buffer consisting of 20 mM Bicine (pH=7.6), 1 mM TCEP, 0.005% BSG, and 0.002% Tween20, prepared on the day of use. Compounds in 100% DMSO (1 ul) were spotted into a polypropylene 384-well V-bottom plates (Greiner) using a Platemate Plus outfitted with a 384-channel head (Thermo Scientific). DMSO (1 ul) was added to Columns 11, 12, 23, 24, rows A-H for the maximum signal control and 1 ul of SAH, a known product and inhibitor of PRMT5/MEP50, was added to columns 11, 12, 23, 24, rows I-P for the minimum signal control. A cocktail (40 ul) containing the PRMT5/MEP50 enzyme and the peptide was added by Multidrop Combi (Thermo-Fisher). The compounds were allowed to incubate with PRMT5/MEP50 for 30 min at 25 degrees Celsius, then a cocktail (10 ul) containing 3H-SAM was added to initiate the reaction (final volume=51 ul). The final concentrations of the components were as follows: PRMT5/MEP50 was 4 nM, 3H-SAM was 75 nM, peptide was 40 nM, SAH in the minimum signal control wells was 100 uM, and the DMSO concentration was 1%. The assays were stopped by the addition of non-radioactive SAM (10 ul) to a final concentration of 600 uM, which dilutes the 3H-SAM to a level where its incorporation into the peptide substrate is no longer detectable. […].

For the molecule `C[C@H](Oc1cccc2cccnc12)C(=O)NC[C@@H](O)CN1Cc2ccccc2C1`, the IC50 (commonly the concentration that gives 50% inhibition) was “in the range around 0.55 µM”.

The record behind these values is ChEMBL document CHEMBL5725862, “PRMT5 inhibitors and uses thereof” (2018).
